Assay results reported in article PMC10914731, “Homo-BacPROTAC-induced degradation of ClpC1 as a strategy against drug-resistant mycobacteria” (Nature Communications, 2024).
Converted amounts (≈) assume the structure as drawn. “And” between values parts separate entries of the source, which are not always exact repeats. Identical values can stand only once. Like-named read-outs stand apart in the source and are kept apart here. *1 amine or outer side, *2 acyl side, *3 side chain or, on linkers, in order; H or OH if unused. Where a SMILES comes first, the peptide text is derived from it. [ ]: non-standard residue; d: D form. X1 = C#CCn1cc(C[C@H](N[*:1])C(=O)[*:2])c2ccccc21; NMeLeu(5-OH,4R) = CN[C@@H](C[C@@H](C)CO)C(=O)O; Phe(βR-OMe) = CO[C@H](c1ccccc1)[C@H](N)C(=O)O; NMeL = CN[C@@H](CC(C)C)C(=O)O

What was measured:
[1] = system: Mtb H37Rv in THP-1 macrophages; assay: Intracellular MIC assay in THP-1 macrophages; format: cell-based, Mycobacterium tuberculosis; set-up: Emax: unit not given here
Enterobacter cloacae = assay: MIC ESKAPES panel, Enterobacter cloacae; format: cell-based
Procedure, shortened: (§1)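 CLSI broth microdilution was run in Mueller Hinton broth with an inoculum of 3–7 × 10^5 cfu/ml at 37 °C. Turbidity was read on day 2; clear wells indicated growth inhibition.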

Mtb (moxR) FNDR-M1 = assay: microbe, parasite or virus in culture; format: cell-based
[2] = target: His6-tagged ClpC1-NTD substrate, M. smegmatis ClpC1P1P2 (UniProt A0R574+P9WPC9); assay: biochemical; format: biochemical; settings: for DC50: Msm; for % Response / ClpC1-NTD peak area: Figure 4a source data, well replicates
Caco-2 monolayers = assay: in vitro; settings: human, Caco-2
Procedure, shortened: (§2)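 Values are bidirectional Caco-2 apparent permeabilities, P(A−B) and P(B−A), given in 10^-6 cm s-1. The efflux ratio divides P(B−A) by P(A−B), and intrinsic permeability averages the two directions.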

in vitro = settings: human
Procedure, shortened: as §2

[3] = target: ClpC1 NTD protein (M. tuberculosis) (Mycobacterium tuberculosis, UniProt P9WPC9); assay: biochemical; format: binding; settings: SPR
Msm 700084 = assay: microbe, parasite or virus in culture; format: cell-based
[4] = system: Mtb (katG del) ATCC 35822; assay: microbe, parasite or virus in culture; format: cell-based; settings: Mycobacterium tuberculosis
Mtb # 8673 = assay: microbe, parasite or virus in culture; format: cell-based
[5] = system: replicating Mtb H37Rv cells; assay: Resazurin growth assay, replicating Mtb H37Rv (Supplementary Fig. 2); format: cell-based, Mycobacterium tuberculosis; settings: three replicate columns
Staphylococcus aureus = assay: MIC ESKAPES panel, Staphylococcus aureus; format: cell-based
Procedure, shortened: as §1

[6] = format: in vitro ADME, Mice
Procedure, shortened: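 Metabolic depletion in liver microsomes (0.5 mg/ml, 1 mM NADPH, 37 °C) starting from 1 µmol/l test compound, sampled at multiple times with acetonitrile quench. LC-MS/MS quantitation; half-life converted to %Qh.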

Mycobacterium fortuitum = assay: microbe, parasite or virus in culture; format: cell-based
[7] = system: Mycobacterium intracellulare; assay: microbe, parasite or virus in culture; format: cell-based
Msm #607 = assay: Minimum bactericidal concentration (MBC), Msm #607; format: cell-based, Mycobacterium smegmatis; settings: Mycolicibacterium smegmatis
[8] = Experiment 2, three replicate columns

Sequence of ClpC1 NTD protein (M. tuberculosis) (P9WPC9 1-156, looked up, natural form): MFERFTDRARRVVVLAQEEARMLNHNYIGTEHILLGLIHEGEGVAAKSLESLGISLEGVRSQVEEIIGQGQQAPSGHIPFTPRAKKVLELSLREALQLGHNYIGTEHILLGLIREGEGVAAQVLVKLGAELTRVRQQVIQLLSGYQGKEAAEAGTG
Sequence of His6-tagged ClpC1-NTD substrate, M. smegmatis ClpC1P1P2 (P9WPC9 1-156, looked up, natural form): as above
Sequence of His6-tagged ClpC1-NTD substrate, M. smegmatis ClpC1P1P2 (A0R574 whole entry): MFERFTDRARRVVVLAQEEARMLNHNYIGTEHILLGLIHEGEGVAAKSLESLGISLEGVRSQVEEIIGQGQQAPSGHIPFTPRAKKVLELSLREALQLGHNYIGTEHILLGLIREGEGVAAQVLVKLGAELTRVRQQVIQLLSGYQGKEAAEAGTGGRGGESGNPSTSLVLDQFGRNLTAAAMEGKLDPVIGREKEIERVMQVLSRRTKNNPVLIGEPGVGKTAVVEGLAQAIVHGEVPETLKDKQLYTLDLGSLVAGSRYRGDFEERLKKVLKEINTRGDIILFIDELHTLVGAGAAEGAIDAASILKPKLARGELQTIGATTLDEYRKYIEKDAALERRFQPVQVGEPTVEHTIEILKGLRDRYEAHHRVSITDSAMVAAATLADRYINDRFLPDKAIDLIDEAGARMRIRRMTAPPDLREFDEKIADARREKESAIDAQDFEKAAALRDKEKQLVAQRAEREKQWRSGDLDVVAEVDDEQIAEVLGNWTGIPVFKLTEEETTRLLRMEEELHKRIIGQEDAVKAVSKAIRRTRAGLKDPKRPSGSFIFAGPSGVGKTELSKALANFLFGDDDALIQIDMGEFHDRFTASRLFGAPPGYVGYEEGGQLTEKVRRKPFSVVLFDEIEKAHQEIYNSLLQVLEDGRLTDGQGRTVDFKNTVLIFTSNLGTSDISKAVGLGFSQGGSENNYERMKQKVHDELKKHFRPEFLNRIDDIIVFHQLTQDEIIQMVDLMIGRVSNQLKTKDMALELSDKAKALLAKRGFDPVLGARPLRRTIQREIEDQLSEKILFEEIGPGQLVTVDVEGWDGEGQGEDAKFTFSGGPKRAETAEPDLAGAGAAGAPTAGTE

## C#CCn1cc(C[C@@H]2NC(=O)[C@H](C(C)C)NC(=O)[C@H](CC(C)C)N(C)C(=O)[C@H](C(C)C)NC(=O)[C@H]([C@H](OC)c3ccccc3)NC(=O)[C@H](C)NC(=O)[C@H](C[C@@H](C)CO)N(C)C2=O)c2ccccc21 [Compound 5] (cyclo(A[Phe(βR-OMe)]V[NMeL]V[X1][NMeLeu(5-OH,4R)]))
[1]
  Emax: 1.14
[1]; 0.195µM, Day 4, well replicates
  intracellular viable mycobacteria: 5.51 log10 cfu/ml
[1]; 0.195µM, Day 7, well replicates
  intracellular viable mycobacteria: 5.68 log10 cfu/ml
[1]; 0.781µM, Day 4, well replicates
  intracellular viable mycobacteria: 4.46 log10 cfu/ml and 4.51 log10 cfu/ml
[1]; 3.125µM, Day 4, well replicates
  intracellular viable mycobacteria: 4.19 log10 cfu/ml and 4.2 log10 cfu/ml
[1]; 3.125µM, Day 7, well replicates
  intracellular viable mycobacteria: 4.96 log10 cfu/ml
Enterobacter cloacae; Enterobacter cloacae, Gram negative, n = 3 well replicates
  MIC: > 50 µM
Enterobacter cloacae; Enterobacter cloacae, Gram-Negative Bacteria, replicates 1-3
  MIC: > 47 µg/mL
Enterobacter cloacae; Gram-Negative Bacteria, replicates 1-3
  MIC: >50 µM
Mtb (moxR) FNDR-M1; M. tuberculosis FNDR-M1, single well replicates
  MIC: 0.391 µM and 0.781 µM
Mtb (moxR) FNDR-M1; Mycobacterium tuberculosis, M. tuberculosis FNDR-M1, single well replicates
  MIC: 0.781 µM (≈ 0.735 µg/mL)
Mtb (moxR) FNDR-M1; Mycobacterium tuberculosis, Mtb (moxR) FNDR-M1, mean ± SD, n = 3 well replicates
  MIC: 0.7 ± 0.2 µM (≈ 0.659 µg/mL)
[2]; Measurement 1-6, read-out: DC50, single measurements
  DC50: > 100000 nM
[2]; mean of the measurements, read-out: DC50, Mean
  DC50: > 100000 nM
[2]; cell-free, result in words
  degradation of the His6-tagged ClpC1-NTD substrate: did not cause any degradation
[2]; conc. 0.4 µM
  % Response: 116.842% and 113.028% and 105.03% and 119.052% and 111.716% and 114.137% and 123.793% and 118.108% and 117.25%
  ClpC1-NTD peak area: 640826 and 655003 and 1857813 and 1613203 and 1512289 and 674239 and 595770 and 768891 and 644662
[2]; conc. 33.3 µM
  % Response: 90.9541% and 97.3128% and 94.2061% and 106.414% and 99.6024% and 104.896% and 117.254% and 102.794% and 105.872%
  ClpC1-NTD peak area: 584244 and 637952 and 1853168 and 1510772 and 1477984 and 564418 and 575020 and 543552 and 642219
[2]; conc. 100.0 µM
  % Response: 105.654% and 87.8451% and 96.6012% and 102.875% and 103.779% and 107.689% and 115.982% and 114.344% and 115.781%
  ClpC1-NTD peak area: 756908 and 694227 and 2586172 and 1761383 and 2099655 and 509578 and 446745 and 481433 and 842128
Caco-2 monolayers
  Caco-2 Int. Perm: 12.1
  Influence of N-methylation on permeability: 9.3
In vitro; Caco-2
  efflux ratio: 20.4
In vitro; Caco-2, CACO permeability PEAB
  Papp A→B: 0.95 ×10⁻⁶ cm/s
In vitro; Caco-2, CACO permeability PEBA
  Papp B→A: 19 ×10⁻⁶ cm/s
In vitro; Caco-2, Caco-2 permeability P (A-B)
  Papp A→B: 1.1 ×10⁻⁶ cm/s
In vitro; Caco-2, Caco-2 permeability P (B-A)
  Papp B→A: 23 ×10⁻⁶ cm/s
[3]; individual measurements (source data), read-out: KD ClpC1-NTD
  Kd: 3.63 nM and 3.45 nM
[3]; single independent measurements
  koff ClpC1-NTD: 0.04 s⁻¹
[3]; single independent measurements, read-out: koff ClpC1-NTD
  koff: 0.02 s⁻¹
[3]; read-out: ClpC1-NTD KD Mean ± SD
  Kd: 3.5 ± 0.1 nM
Msm 700084; Mycolicibacterium smegmatis, 700084, single determinations, read-out: Msm 700084 MIC
  MIC: 6.25 µM (≈ 5.88 µg/mL)
Msm 700084; Mycolicibacterium smegmatis, 700084, read-out: MIC Msm 700084
  MIC: 6.3 µM (≈ 5.93 µg/mL)
[4]; ATCC35822, M. tuberculosis ATCC 35822, single well replicates
  MIC: 0.781 µM (≈ 0.735 µg/mL)
[4]; ATCC35822, Mtb (katG del) ATCC 35822, mean ± SD, n = 3 well replicates
  MIC: 0.8 µM (≈ 0.753 µg/mL)
Mtb # 8673; Mycobacterium tuberculosis, mean, n = 2 well replicates
  MIC: 0.2 µM and 0.2 µg/mL
Mtb # 8673; Mycobacterium tuberculosis, single well replicates
  MIC: 0.19 µM and 0.18 µg/mL
Mtb # 8673; single well replicates
  MIC: 0.19 µM (≈ 0.179 µg/mL)
  MIC Mtb # 8673: 0.18 µg/mL (≈ 0.191 µM)
[5]; Conc. 0.0488281 µM
  Supplementary Figure 2 dose-response value, replicating H37Rv cells: 98.0652 and 83.9808 and 80.51
[5]; Conc. 0.0976562 µM
  Supplementary Figure 2 dose-response value, replicating H37Rv cells: 93.0506 and 83.7138 and 106.369
[5]; Conc. 0.195312 µM
  Supplementary Figure 2 dose-response value, replicating H37Rv cells: 80.9008 and 79.6239 and 83.1102
[5]; Conc. 0.390625 µM
  Supplementary Figure 2 dose-response value, replicating H37Rv cells: 100.805 and 94.8498 and 103.432
[5]; Conc. 0.78125 µM
  Supplementary Figure 2 dose-response value, replicating H37Rv cells: 90.0247 and 88.21 and 77.7086
[5]; Conc. 1.5625 µM
  Supplementary Figure 2 dose-response value, replicating H37Rv cells: 89.1967 and 85.691 and 102.875
[5]; Conc. 3.125 µM
  Supplementary Figure 2 dose-response value, replicating H37Rv cells: 81.2645 and 83.4662 and 77.6892
[5]; Conc. 6.25 µM
  Supplementary Figure 2 dose-response value, replicating H37Rv cells: 79.2563 and 81.2993 and 97.3301
[5]; Conc. 25 µM
  Supplementary Figure 2 dose-response value, replicating H37Rv cells: 23.3248 and 18.2173 and 22.7212
[5]; Conc. 50 µM
  Supplementary Figure 2 dose-response value, replicating H37Rv cells: 9.562 and 6.199 and 9.0701
[5]; Conc. 100 µM
  Supplementary Figure 2 dose-response value, replicating H37Rv cells: 10.3547 and 8.316 and 5.8624
Staphylococcus aureus; Gram-Positive Bacteria, replicates 1-3
  MIC: >50 µM
Staphylococcus aureus; Staphylococcus aureus, Gram positive, n = 3 well replicates
  MIC: > 50 µM
Staphylococcus aureus; Staphylococcus aureus, Gram-Positive Bacteria, replicates 1-3
  MIC: > 47 µg/mL
[6]; Mouse
  Microsomal Stability Mouse QH: >88.400%
[6]; clearance in microsomes
  Microsomal Stability Mice: > 88 %Qh
Mycobacterium fortuitum; Experiment 1, read-out: MIC Mycobacterium fortuitum
  MIC: 6.3 µM
Mycobacterium fortuitum; [8]
  MIC (µg/ml) Mycobacterium fortuitum: 5.88 µg/mL (≈ 6.25 µM)
Mycobacterium fortuitum; Experiment 2, three replicate columns, read-out: MIC (µM) Mycobacterium fortuitum
  MIC: 6.25 µM
Mycobacterium fortuitum; Mycolicibacterium fortuitum, Experiment 1, read-out: MIC Mycobacterium fortuitum
  MIC: 5.9 µg/mL
Mycobacterium fortuitum; Mycolicibacterium fortuitum, Experiment 2, three replicate columns, read-out: MIC (µM) Mycobacterium fortuitum
  MIC: 6.25 µM
Mycobacterium fortuitum; Mycolicibacterium fortuitum, Experiment 2, three replicate columns, read-out: MIC (µg/ml) Mycobacterium fortuitum
  MIC: 5.88 µg/mL
Mycobacterium fortuitum; Mycolicibacterium fortuitum, mean ± SD, read-out: MIC Mycobacterium fortuitum
  MIC: 6.3 µM
[7]; Experiment 1, read-out: MIC Mycobacterium intracellulare
  MIC: 6.3 µM
[7]; [8]
  MIC (µg/ml) Mycobacterium intracellulare: 5.88 µg/mL (≈ 6.25 µM)
[7]; Experiment 2, three replicate columns, read-out: MIC (µM) Mycobacterium intracellulare
  MIC: 6.25 µM
[7]; Mycobacterium intracellulare, Experiment 1, read-out: MIC Mycobacterium intracellulare
  MIC: 5.9 µg/mL
[7]; Mycobacterium intracellulare, Experiment 2, three replicate columns, read-out: MIC (µM) Mycobacterium intracellulare
  MIC: 6.25 µM
[7]; Mycobacterium intracellulare, Experiment 2, three replicate columns, read-out: MIC (µg/ml) Mycobacterium intracellulare
  MIC: 5.88 µg/mL
[7]; Mycobacterium intracellulare, mean ± SD, read-out: MIC Mycobacterium intracellulare
  MIC: 6.3 µM
Msm #607; ATCC607, read-out: MBC (from Set 3) Msm ATCC 607
  MBC: > 47 µg/mL and > 50 µM
Msm #607; read-out: MBC Msm #607, individual example
  MBC: > 50 µM and > 47.1 µg/mL
